Assay results as given in patent US8138170B2, “Immunosuppressive Ningalin compounds” (Memorial Sloan-Kettering Cancer Center, priority 2004, dated 2012).
Values joined by “and” are separate entries in the source; they are usually repeats but may differ in a detail not shown here. Equal entries are not always repeated. Where two headings read alike, the source gives them in different places.

Experiments:
[1] = tested on: P388/DX leukemic cells resistant to Adriamycin; conditions: for Log cell kill: calculated assuming doubling time 0.4 day
[2] = tested on: carrageenan-induced paw edema; test: Carrageenan-induced paw edema; type: in vivo, B6D2F1 mice; conditions: for Pedis Area: individual mice 1-4; for Pedis Area, Mean: mean of 4 mice
Procedure: Carrageene (1%, 30 μl) was injected i.m. into the pedis of B6D2F1 mice (4 mice/group) to induced edemic inflammation at 0 hours. N3, N5 (i.p. injection) or oral administration of aspirin 500 mg/kg, or topical application of hydrocortisone cream (1%) or Lidex cream (0.05%) to the pedis skins were given at −1, 6, 12 and 24 hours. The control mice received dimethylsulfoxide (the vehicle of ningalins). The pedis areas (in mm^2) were measured at 0, 3, 6, 12, 24, 36 and 48 hours.

[3] = Cytotoxicity measured by cell proliferation inhibition; type: cell-based
C57BL/6 heart allografts = test: Heterotopic heart transplantation in mice; type: in vivo, Balb/c mice
Procedure: Heterotopic heart transplantation was performed in rats and mice. In brief, heart transplantation was performed by previously described modified method. Hearts harvested from donors were perfused with chilled saline and immediately transplanted to recipients under full anesthesia. Suture 10-0 in rats and 12-0 in mice (Ethicon; Somerville, N.J.) was used to perform anastomosis of aorta to aorta and pulmonary artery to vena cava. Heartbeat was evaluated daily and the day of complete cessation was considered rejection. Animals that died within three days after transplantation were excluded from the analysis (less than 5%).
Mice were also transplanted with heart allografts. In particular, untreated Balb/c (H-2^d) recipients rejected C57BL/6 (H-2^b) heart allografts at a MST of 7.8±0.84 days (n=5). Treatment with 40 mg/kg N5, QDx7, extended heart allograft survival to 13.33±2.52 days, which increased life span 71% (n=3; p<0.03).
Mice heart allografts were treated with 20 mg/kg of N3, QDx7, i.p. In particular, untreated Balb/c (H-2^d) recipients rejected C57BL/6 ([…]) heart allografts at a MST of […] days (n=5). Treatment with 20 mg/kg of N3 (i.e., one-half of dose of N5) extended heart allograft survival to 18.75±3.86 days (n=4; p<0.0005), an increase in lifespan of 140%.

human lymphocytes = test: Inhibition of PHA-stimulated lymphocyte proliferation ([3H]thymidine incorporation); type: cell-based; conditions: for IC50: read-out: Immunosuppressive Effect (IC50 in μM) [B]
P388/DX leukemic cells = type: in vivo, B6D2F1 mice; conditions: for Log cell kill: calculated assuming doubling time 0.4 day
[4] = Adriamycin 3.0 mg/kg iv alone or with N3 20 mg/kg ip, QD × 3
[5] = N3 20 mg/kg ip and/or Adriamycin 1.5 mg/kg iv, QD × 3
[6] = 0 hr, aspirin 500 mg/kg oral, N3 100 mg/kg i.p., N5 50 mg/kg i.p., hydrocortisone cream 1%, Lidex cream 0.05% topical, given at −1, 6, 12, 24 hours
[7] = PHA-stimulated human lymphocyte proliferation
[8] = N3 20 mg/kg ip and/or Taxol 5.0 mg/kg iv, QD × 3
[9] = Taxol 10.0 mg/kg iv alone or with N3 20 mg/kg ip, QD × 3

Compound | Lifespan increase (%) [1, 5] | Median survival time (days ± SD) [1, 5] [days] | Pedis Area [2, 6] [mm^2] | Pedis Area, Mean ([2]; 0 hr, doses as E35) [mm^2] | Pedis Area ([2]; 3 hr, doses as E35) | Pedis Area, Mean ([2]; 3 hr, doses as E35) [mm^2] | Pedis Area ([2]; 6 hr, doses as E35) | Pedis Area, Mean ([2]; 6 hr, doses as E35) [mm^2] | Pedis Area ([2]; 12 hr, doses as E35) | Pedis Area, Mean ([2]; 12 hr, doses as E35) [mm^2] | Pedis Area ([2]; 24 hr, doses as E35) | Pedis Area, Mean ([2]; 24 hr, doses as E35) [mm^2] | Pedis Area ([2]; 36 hr, doses as E35) | Pedis Area, Mean ([2]; 36 hr, doses as E35) [mm^2] | Pedis Area ([2]; 48 hr, doses as E35) | Pedis Area, Mean ([2]; 48 hr, doses as E35) [mm^2] | IC50 [3] [µM] | IC50 (human lymphocytes; [7]) [µM] | Lifespan increase (%) (P388/DX leukemic cells; [8]) | Median survival time (days ± SD) (P388/DX leukemic cells; [8]) [days] | further results
COc1cccc2c1C(=O)c1c(O)c3c(c(O)c1C2=O)C[C@@](O)(C(=O)CO)C[C@@H]3O[C@H]1C[C@H](N)[C@H](O)[C@H](C)O1 [Adriamycin, Doxorubicin] | +7% | 11.25 ± 1.75 | – | – | – | – | – | – | – | – | – | – | – | – | – | – | – | – | – | – | Log cell kill ([1]; Adriamycin 1.5 mg/kg iv alone or with N3 20 mg/kg ip): 0.56; Lifespan increase (%) [1, 4]: +15%; Lifespan increase (days) [1, 4]: +1.58 days; Median survival time (days ± SD) [1, 4]: 12.08 ± 1.81 days; Log cell kill ([1]; Adriamycin 3.0 mg/kg iv alone or with N3 20 mg/kg ip): 1.19; Lifespan increase (days) [1, 5]: +0.75 days
CC(=O)Oc1ccccc1C(=O)O [Aspirin, aspirin, reference compound] | – | – | 100 | 100 | 142.2 mm^2 and 130.5 mm^2 and 122 mm^2 and 134.5 mm^2 | 132.3 | 151.4 mm^2 and 139.8 mm^2 and 124.6 mm^2 and 149.6 mm^2 | 141.4 | 138.5 mm^2 and 135.6 mm^2 and 120.3 mm^2 and 138.9 mm^2 | 133.3 | 116.5 mm^2 and 116.9 mm^2 and 108.5 mm^2 and 118.6 mm^2 | 115.1 | 114.7 mm^2 and 107.6 mm^2 and 94.1 mm^2 and 109.7 mm^2 | 106.5 | 118.3 mm^2 and 105.9 mm^2 and 92.4 mm^2 and 111.5 mm^2 | 107 | – | – | – | – | –
COc1ccc(CCn2cc(-c3ccc(OC)c(OC)c3)c3c4cc(OC)c(OC)cc4oc(=O)c32)cc1OC [Ningalin N3, 1-(3,4-Dimethoxy-phenyl)-3-[2-(3,4-dimethoxy-phenyl)-ethyl]-7,8-dimethoxy-3H-5-oxa-3-aza-cyclopenta[α]naphthalen-4-one] | −12% | 9.25 ± 0.66 | 100 | 100 | 134.4 mm^2 and 142.7 mm^2 and 141.7 mm^2 and 139.5 mm^2 | 139.6 | 140.6 mm^2 and 159.2 mm^2 and 153.4 mm^2 and 151.8 mm^2 | 151.3 | 140.6 mm^2 and 150.5 mm^2 and 139.8 mm^2 and 135.1 mm^2 | 141.5 | 134.4 mm^2 and 142.7 mm^2 and 136.9 mm^2 and 128.1 mm^2 | 135.5 | 131.1 mm^2 and 136.9 mm^2 and 121.9 mm^2 and 127.9 mm^2 | 129.5 | 131.1 mm^2 and 136.9 mm^2 and 115.8 mm^2 and 126 mm^2 | 127.5 | 51.3 ± 18 | 0.51 ± 0.19 | −13% | 8.00 ± 0.54 | anti-inflammatory effect (FIG. 3) ([2]; N5 50 mg/kg i.p., N3 100 mg/kg i.p., all drugs: at 12-48 hours): produced an anti-inflammatory effect; MST ± SD days (heart allograft survival) (C57BL/6 heart allografts; B6 heart to Balb/c, N3 20 mg/kg QDx7 i.p., 20 mg/kg): 18.75±3.86 days; increase in lifespan (C57BL/6 heart allografts; heart allograft, N3 20 mg/kg QDx7 i.p., vs untreated): 140%; Survival days (individual animals) (C57BL/6 heart allografts; heart, N3 20 mg/kg, 20 mg/kg): 19 days and 24 days and 15 days and 17 days; lifespan of tumor bearing mice compared to saline treated controls (P388/DX leukemic cells; N3 20 mg/kg i.p. daily for three days): decreased the lifespan; Lifespan increase (P388/DX leukemic cells; [8]): -1.19 days; Lifespan increase [1, 5]: -1.25 days; decreased the lifespan ([1]; N3 alone 20 mg/kg i.p. daily for three days, vs control): 12%
COC(=O)c1c(-c2cc(OC)c(OC)c(OC)c2)c(-c2cc(OC)c(OC)c(OC)c2)c(C(=O)OC)n1CCc1ccc(OC)cc1 [Ningalin N6, 1-[2-(4-Methoxy-phenyl)-ethyl]-3,4-bis-(3,4,5-trimethoxy-phenyl)-1H-pyrrole-2,5-dicarboxylic acid dimethyl ester] | – | – | – | – | – | – | – | – | – | – | – | – | – | – | – | – | 70.2 ± 20.5 | 1.61 ± 0.31 | – | – | Selectivity Ratio [A]/[B] (human lymphocytes; cytotoxicity IC50 / immunosuppressive IC50): 43.6
CC(=O)O[C@H]1C(=O)[C@@]2(C)[C@H]([C@H](OC(=O)c3ccccc3)[C@]3(O)C[C@H](OC(=O)[C@H](O)[C@@H](NC(=O)c4ccccc4)c4ccccc4)C(C)=C1C3(C)C)[C@]1(OC(C)=O)CO[C@@H]1C[C@@H]2O [Taxol, paclitaxel] | – | – | – | – | – | – | – | – | – | – | – | – | – | – | – | – | – | – | +4% | 9.56 ± 0.62 | Lifespan increase (days) (P388/DX leukemic cells; [8]): +0.37 days; Log cell kill (P388/DX leukemic cells; Taxol 5.0 mg/kg iv alone or with N3 20 mg/kg ip): 0.28; Lifespan increase (%) (P388/DX leukemic cells; [9]): +4%; Lifespan increase (days) (P388/DX leukemic cells; [9]): +0.37 days; Median survival time (days ± SD) (P388/DX leukemic cells; [9]): 9.56 ± 0.88 days; Log cell kill (P388/DX leukemic cells; Taxol 10.0 mg/kg iv alone or with N3 20 mg/kg ip): 0.28
COc1ccc(CCN(C)CCCC(C#N)(c2ccc(OC)c(OC)c2)C(C)C)cc1OC (centres unmarked) [Verapamil, reference compound] | – | – | – | – | – | – | – | – | – | – | – | – | – | – | – | – | – | – | – | – | IC50 (human lymphocytes; Homo sapiens, Lymphocyte): 6.9 ± 1.01 µM
